One assay relates to M. avium. The note with it: cited from earlier work.
The test system of another assay is M. abscessus. The note with it: cited from earlier work.
Assay [1] deals with M. avium 11. Briefly: Single point growth inhibition screening assay. Format: cell-based, Mycobacterium avium. The note with it: M. avium 11, 20 μM, 4 days.
Assay [2] relates to M. abscessus Bamboo. The assay can be described thus: Single point growth inhibition screening assay. The assay is classed as cell-based, Mycobacterium abscessus. The note with it: 20 μM, 3 days.
Assay [3] concerns M. abscessus Bamboo. Briefly: Dose-response growth inhibition (broth microdilution). Format: cell-based, Mycobacterium abscessus. The note with it: Mycobacteroides abscessus, 72 h, M. abscessus Bamboo, 3 days.
Assay [4] concerns M. avium 11. The assay can be described thus: Bactericidal assay (CFU, fold kill). The assay is classed as cell-based, Mycobacterium avium. The note with it: 10^7 CFU/mL exposed to MIC90 for 4 days, CFU vs starting inoculum.
The test system of assay [5] is M. avium 11. The assay can be described thus: Dose-response growth inhibition (broth microdilution). The assay is classed as cell-based, Mycobacterium avium. The note with it: Mycobacterium avium, 96 h, M. avium 11, 4 days.
The subject of assay [6] is M. abscessus Bamboo. Briefly: Bactericidal assay (CFU, fold kill). The note with it: 10^7 CFU/mL exposed to MIC90 for 3 days, CFU vs starting inoculum. Format: cell-based, Mycobacterium abscessus.
Where [7] appears, read: ref Brown-Elliott et al., 2003, Cavusoglu et al., 2007, Aziz et al., 2017.

In brackets after ≈: the same amount, converted by molar mass. Several values for one entry are separate records, joined by “and”; a condition that tells them apart may be missing. Equal entries are not always repeated. Where two headings read alike, the source gives them in different places.

As to `CC(C)=CCC/C(C)=C/CNCCNC1C2CC3CC(C2)CC1C3` (stereo not shown) [SQ109], the MIC in the assay with M. avium (ref Sacksteder et al., 2012) is 4–16 mg/L and 12–48 μM; in the assay on M. abscessus (ref Sacksteder et al., 2012), 4–16 mg/L and 12–48 μM.

Take `COc1nc2ccc(Br)cc2cc1[C@@H](c1ccccc1)[C@@](O)(CCN(C)C)c1cccc2ccccc12` [bedaquiline]: the “Activity in primary screen (hit = equal or more than 80% growth inhibition)” value with M. avium 11 [1] and in the assay with M. abscessus Bamboo [2] was “showed activity” each time.

`CC[C@H]1OC(=O)[C@H](C)[C@@H](O[C@H]2C[C@@](C)(OC)[C@@H](O)[C@H](C)O2)[C@H](C)[C@@H](O[C@@H]2O[C@H](C)C[C@H](N(C)C)[C@H]2O)[C@](C)(OC)C[C@@H](C)C(=O)[C@H](C)[C@@H](O)[C@]1(C)O` [clarithromycin, reference compound]: the MIC50 with M. abscessus Bamboo [3] (read-out: MIC50) and with M. avium 11 [5] (read-out: MIC50) was less than 0.2 µM each time. The MIC90 came to 0.5 µM (≈ 0.374 µg/mL) in the assay with M. abscessus Bamboo [3] (read-out: MIC90) and 0.6 µM (≈ 0.449 µg/mL) with M. avium 11 [5] (read-out: MIC90). Further, the “Concentration required to reduce CFU 10-fold, relative to MIC90” value is reported as “up to 64 times” in the assay with M. avium (ref Heifets et al., 1992) and “up to 100 times” with M. abscessus (ref Aziz et al., 2017). In addition, the “Fold kill at MIC90” value in the assay on M. avium 11 [4] is given as “NK (NK, “no kill,” i.e., CFU reduction < 10-fold at MIC90)”; with M. abscessus Bamboo [6], “NK (NK, “no kill,” i.e., CFU reduction < 10-fold at MIC90)”.

In the case of `C[C@]1(COc2ccc(N3CCC(Oc4ccc(OC(F)(F)F)cc4)CC3)cc2)Cn2cc([N+](=O)[O-])nc2O1` [delamanid], the “Activity in primary screen (hit = equal or more than 80% growth inhibition)” value in the assay with M. avium 11 [1] is listed as “M. avium-specific hits”.

Regarding `C[C@@H](O)[C@H]1C(=O)N2C(C(=O)O)=C(SCCN=CN)C[C@H]12` [imipenem], the MIC result in the assay on M. abscessus (ref Lavollay et al., 2014) was “around 27 μM and ~8 mg/L”.

Regarding `C[C@H]1COc2c(N3CCN(C)CC3)c(F)cc3c(=O)c(C(=O)O)cn1c23` [levofloxacin], the “Activity in primary screen (hit = equal or more than 80% growth inhibition)” value in the assay on M. avium 11 [1] and with M. abscessus Bamboo [2] was “showed activity” in each case.

In the case of `CC(=O)NC[C@H]1CN(c2ccc(N3CCOCC3)c(F)c2)C(=O)O1` [linezolid], the MIC90 with M. avium (setting [7]) was 22 µM (≈ 7.42 µg/mL); in the assay on M. abscessus (setting [7]), 36 µM (≈ 12.1 µg/mL).

For `OC(c1cc(C(F)(F)F)nc2c(C(F)(F)F)cccc12)C1CCCCN1` (stereo not shown) [mefloquine], in the assay on M. avium 11 [1], the “Activity in primary screen (hit = equal or more than 80% growth inhibition)” value is on record as “M. avium-specific hits”.

Consider `CO[C@H]1/C=C/O[C@@]2(C)Oc3c(C)c(O)c4c(O)c(c(/C=N/N5CCN(C)CC5)c(O)c4c3C2=O)NC(=O)/C(C)=C\C=C\[C@H](C)[C@H](O)[C@@H](C)[C@@H](O)[C@@H](C)[C@H](OC(C)=O)[C@@H]1C` [rifampicin], for which, in the assay on M. avium 11 [1], the “Activity in primary screen (hit = equal or more than 80% growth inhibition)” value is “M. avium-specific hits”. Further, the MIC in the assay with M. abscessus (ref Aziz et al., 2017) is no less than 37 µM.

`[H]/N=C(/N)N[C@H]1[C@H](O)[C@@H](O)[C@H](O[C@@H]2O[C@@H](C)[C@](O)(C=O)[C@H]2O[C@@H]2O[C@@H](CO)[C@H](O)[C@@H](O)[C@@H]2NC)[C@@H](N/C(N)=N\[H])[C@@H]1O` [streptomycin]: the “Activity in primary screen (hit = equal or more than 80% growth inhibition)” value with M. avium 11 [1] was “M. avium-specific hits”.

Source of the values: publication PMC5559473, “Screening of TB Actives for Activity against Nontuberculous Mycobacteria Delivers High Hit Rates” (Frontiers in Microbiology, 2017).
